Measurements: patent US6376497B1, “Antifungal azole derivatives having a fluorinated vinyl group and process for preparing same” (Korea Research Institute of Chemical Technology, priority 1999, dated 2002)

Key:
Experiment in all cases: In vitro antifungal activity, microbroth dilution MIC
Assay type in all cases: cell-based
Conditions in all cases: RPMI-1640, 35° C., 4 to 48 hours, no growth observed
[1] = system: Candida parapsitosis A. 7330
Method in brief: (§1)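 Broth microdilution adapted from NCCLS M27, in RPMI-1640 with 0.165 M MOPS, pH 7.0. Yeast or mould inoculum at 2×10^3 CFU/ml was mixed 1:1 with DMSO-derived compound solutions (200 to 0.10 μg/ml before mixing) and incubated at 35 °C for 4 to 48 h. MIC was the concentration showing no growth.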

[2] = system: Candida albicans A. 10231
Method in brief: as §1

[3] = system: Cryptococcus neoformans B. 42419
Method in brief: as §1

[4] = system: Candida pseudotropicalis K. 11658
Method in brief: as §1

[5] = system: Candida tropicalis A. 13803
Method in brief: as §1

[6] = system: Trichophyton mentagrophytes B. 32663
Method in brief: as §1

Candida krusei K. 11655 = system: Candida krusei K. 11655
Method in brief: as §1

[7] = system: Cryptococcus neoformans IFM. 40092
Method in brief: as §1

Candida albicans C1-2 = system: Candida albicans C1-2
Method in brief: as §1

[8] = system: Aspergillus furnigatus B. 19119
Method in brief: as §1

[9] = system: Aspergillus niger A. 16404
Method in brief: as §1

[10] = system: Torulopsis glabrata B. 16205
Method in brief: as §1

[11] = system: Candida albicans IFO. 1385
Method in brief: as §1

[12] = system: Trichophyton mentagrophytes A. 9129
Method in brief: as §1

[13] = system: Cryptococcus neoformans A. 34144
Method in brief: as §1

SMILES: CCc1ccc(C(=C(F)N2CCN(c3ccc(OCC4COC(Cn5ccnc5)(c5ccc(Cl)cc5Cl)O4)cc3)CC2)C(F)(F)F)cc1 (mixture of isomers) [Ex. 127]
- Minimal inhibitory concentration(MIC), C. parapsitosis A. 7330 [1]: 3.13 µg/mL
- Minimal inhibitory concentration(MIC), C. albicans A. 10231 [2]: >100 µg/mL
- Minimal inhibitory concentration(MIC), Cry. neoformans B. 42419 [3]: 0.78 µg/mL
- Minimal inhibitory concentration(MIC), C. pseudotropicalis K. 11658 [4]: 1.56 µg/mL
- Minimal inhibitory concentration(MIC), C. tropicalis A. 13803 [5]: >100 µg/mL
- Minimal inhibitory concentration(MIC), T. mentagrophytes B. 32663 [6]: 3.13 µg/mL
- Minimal inhibitory concentration(MIC), C. krusei K. 11655 (Candida krusei K. 11655): 3.13 µg/mL
- Minimal inhibitory concentration(MIC), Cry. neoformans IFM. 40092 [7]: 0.39 µg/mL
- Minimal inhibitory concentration(MIC), C. albicans C1-2 (Candida albicans C1-2): >100 µg/mL
- Minimal inhibitory concentration(MIC), A furnigatus B. 19119 [8]: >100 µg/mL
- Minimal inhibitory concentration(MIC), A. niger A. 16404 [9]: >100 µg/mL
- Minimal inhibitory concentration(MIC), T. glabrata B. 16205 [10]: >100 µg/mL
- Minimal inhibitory concentration(MIC), C. albicans IFO. 1385 [11]: 3.13 µg/mL
- Minimal inhibitory concentration(MIC), T. mentagrophytes A. 9129 [12]: 12.5 µg/mL
- Minimal inhibitory concentration(MIC), Cry. neoformans A. 34144 [13]: 0.78 µg/mL

SMILES: CC(C)(C)c1ccc(C(=C(F)N2CCN(c3ccc(OCC4COC(Cn5ccnc5)(c5ccc(Cl)cc5Cl)O4)cc3)CC2)C(F)(F)F)cc1 (mixture of isomers) [Ex. 128]
- Minimal inhibitory concentration(MIC), C. parapsitosis A. 7330 [1]: 3.13 µg/mL
- Minimal inhibitory concentration(MIC), C. albicans A. 10231 [2]: >100 µg/mL
- Minimal inhibitory concentration(MIC), Cry. neoformans B. 42419 [3]: 0.78 µg/mL
- Minimal inhibitory concentration(MIC), C. pseudotropicalis K. 11658 [4]: 1.56 µg/mL
- Minimal inhibitory concentration(MIC), C. tropicalis A. 13803 [5]: >100 µg/mL
- Minimal inhibitory concentration(MIC), T. mentagrophytes B. 32663 [6]: 6.25 µg/mL
- Minimal inhibitory concentration(MIC), C. krusei K. 11655 (Candida krusei K. 11655): 3.13 µg/mL
- Minimal inhibitory concentration(MIC), Cry. neoformans IFM. 40092 [7]: ≦0.10 μg/ml
- Minimal inhibitory concentration(MIC), C. albicans C1-2 (Candida albicans C1-2): >100 µg/mL
- Minimal inhibitory concentration(MIC), A furnigatus B. 19119 [8]: >100 µg/mL
- Minimal inhibitory concentration(MIC), A. niger A. 16404 [9]: >100 µg/mL
- Minimal inhibitory concentration(MIC), T. glabrata B. 16205 [10]: >100 µg/mL
- Minimal inhibitory concentration(MIC), C. albicans IFO. 1385 [11]: 1.56 µg/mL
- Minimal inhibitory concentration(MIC), T. mentagrophytes A. 9129 [12]: 12.5 µg/mL
- Minimal inhibitory concentration(MIC), Cry. neoformans A. 34144 [13]: 0.78 µg/mL

SMILES: Cc1ccc(C(=C(F)N2CCN(c3ccc(OCC4COC(Cn5ccnc5)(c5ccc(Cl)cc5Cl)O4)cc3)CC2)C(F)(F)F)cc1C (mixture of isomers) [Ex. 129]
- Minimal inhibitory concentration(MIC), C. parapsitosis A. 7330 [1]: 3.13 µg/mL
- Minimal inhibitory concentration(MIC), C. albicans A. 10231 [2]: >100 µg/mL
- Minimal inhibitory concentration(MIC), Cry. neoformans B. 42419 [3]: 0.78 µg/mL
- Minimal inhibitory concentration(MIC), C. pseudotropicalis K. 11658 [4]: 1.56 µg/mL
- Minimal inhibitory concentration(MIC), C. tropicalis A. 13803 [5]: >100 µg/mL
- Minimal inhibitory concentration(MIC), T. mentagrophytes B. 32663 [6]: 3.13 µg/mL
- Minimal inhibitory concentration(MIC), C. krusei K. 11655 (Candida krusei K. 11655): 3.13 µg/mL
- Minimal inhibitory concentration(MIC), Cry. neoformans IFM. 40092 [7]: 0.39 µg/mL
- Minimal inhibitory concentration(MIC), C. albicans C1-2 (Candida albicans C1-2): >100 µg/mL
- Minimal inhibitory concentration(MIC), A furnigatus B. 19119 [8]: >100 µg/mL
- Minimal inhibitory concentration(MIC), A. niger A. 16404 [9]: >100 µg/mL
- Minimal inhibitory concentration(MIC), T. glabrata B. 16205 [10]: >100 µg/mL
- Minimal inhibitory concentration(MIC), C. albicans IFO. 1385 [11]: 3.13 µg/mL
- Minimal inhibitory concentration(MIC), T. mentagrophytes A. 9129 [12]: 12.5 µg/mL
- Minimal inhibitory concentration(MIC), Cry. neoformans A. 34144 [13]: 0.78 µg/mL

SMILES: FC(=C(c1ccc(C(F)(F)F)cc1)C(F)(F)F)N1CCN(c2ccc(OCC3COC(Cn4ccnc4)(c4ccc(Cl)cc4Cl)O3)cc2)CC1 (mixture of isomers) [Ex. 130]
- Minimal inhibitory concentration(MIC), C. parapsitosis A. 7330 [1]: 1.56 µg/mL
- Minimal inhibitory concentration(MIC), C. albicans A. 10231 [2]: >100 µg/mL
- Minimal inhibitory concentration(MIC), Cry. neoformans B. 42419 [3]: 0.78 µg/mL
- Minimal inhibitory concentration(MIC), C. pseudotropicalis K. 11658 [4]: 1.56 µg/mL
- Minimal inhibitory concentration(MIC), C. tropicalis A. 13803 [5]: >100 µg/mL
- Minimal inhibitory concentration(MIC), T. mentagrophytes B. 32663 [6]: 12.5 µg/mL
- Minimal inhibitory concentration(MIC), C. krusei K. 11655 (Candida krusei K. 11655): 1.56 µg/mL
- Minimal inhibitory concentration(MIC), Cry. neoformans IFM. 40092 [7]: 0.20 µg/mL
- Minimal inhibitory concentration(MIC), C. albicans C1-2 (Candida albicans C1-2): >100 µg/mL
- Minimal inhibitory concentration(MIC), A furnigatus B. 19119 [8]: >100 µg/mL
- Minimal inhibitory concentration(MIC), A. niger A. 16404 [9]: >100 µg/mL
- Minimal inhibitory concentration(MIC), T. glabrata B. 16205 [10]: >100 µg/mL
- Minimal inhibitory concentration(MIC), C. albicans IFO. 1385 [11]: 3.13 µg/mL
- Minimal inhibitory concentration(MIC), T. mentagrophytes A. 9129 [12]: 25.0 µg/mL
- Minimal inhibitory concentration(MIC), Cry. neoformans A. 34144 [13]: 0.78 µg/mL
